Measured values reported in ChEMBL document CHEMBL1770079, “Discovery of small molecule human FPR1 receptor antagonists” (Bioorg Med Chem Lett, 2011).
pIC50: −log10 of the molar value. Values after ≈ are worked out from the molar mass of the structure shown. Blank lines part the entries; values can stand above or below the molecule they belong to. Active and inactive are the calls of the source. The calls are words filed in the database; no cut-off is given here.

Experiments:
fMet-Leu-Phe receptor [1] = target: T1, fMet-Leu-Phe receptor (Homo sapiens, UniProt P21462); assay: Intrinsic activity at FPR1 in human neutrophils assessed as increase in calcium mobilization by FLIPR assay relative to fMLF; type: functional
T1 sequence (P21462 whole entry): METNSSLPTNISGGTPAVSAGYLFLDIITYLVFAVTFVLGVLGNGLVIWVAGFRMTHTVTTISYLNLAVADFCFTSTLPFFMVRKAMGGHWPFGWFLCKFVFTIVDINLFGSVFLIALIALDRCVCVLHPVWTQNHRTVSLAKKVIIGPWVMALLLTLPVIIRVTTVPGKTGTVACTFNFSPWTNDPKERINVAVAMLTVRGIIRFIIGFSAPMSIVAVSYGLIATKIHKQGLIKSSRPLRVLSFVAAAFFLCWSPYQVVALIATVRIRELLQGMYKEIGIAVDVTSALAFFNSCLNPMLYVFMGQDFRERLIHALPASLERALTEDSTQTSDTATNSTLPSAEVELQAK

[2] = Intrinsic clearance in human microsomes; type: ADME, Microsome
[3] = target: T2, fMet-Leu-Phe receptor (Homo sapiens) (UniProt P21462); assay: Antagonist activity at FPR1 in human neutrophils assessed as inhibition of fMLF-stimulated calcium mobilization at 50 uM by FLIPR assay; type: functional
T2 sequence (whole entry): T1 sequence (P21462 whole entry)

[4] = target: T2, fMet-Leu-Phe receptor (Homo sapiens); assay: Agonist activity at FPR1 in human neutrophils assessed as increase in calcium mobilization by FLIPR assay; type: functional; parameters: concentration or dose not given beside the values; settings: concentration not given here
fMet-Leu-Phe receptor [5] = target: T1, fMet-Leu-Phe receptor; assay: Displacement of [3H]fMLF from human FPR1 expressed in CHO cells by scintillation counting; type: cell-based
fMet-Leu-Phe receptor [6] = target: T1, fMet-Leu-Phe receptor; assay: Antagonist activity at FPR1 in human neutrophils assessed as inhibition of fMLF-stimulated calcium mobilization by FLIPR assay; type: functional
[7] = target: T3, N-formyl peptide receptor 2 (Homo sapiens) (UniProt P25090); assay: Antagonist activity at FPR2 in human neutrophils assessed as inhibition of SHHGtide-stimulated intracellular calcium mobilisation at 50 uM by FLIPR assay; type: functional, cell-based
T3 sequence (whole entry): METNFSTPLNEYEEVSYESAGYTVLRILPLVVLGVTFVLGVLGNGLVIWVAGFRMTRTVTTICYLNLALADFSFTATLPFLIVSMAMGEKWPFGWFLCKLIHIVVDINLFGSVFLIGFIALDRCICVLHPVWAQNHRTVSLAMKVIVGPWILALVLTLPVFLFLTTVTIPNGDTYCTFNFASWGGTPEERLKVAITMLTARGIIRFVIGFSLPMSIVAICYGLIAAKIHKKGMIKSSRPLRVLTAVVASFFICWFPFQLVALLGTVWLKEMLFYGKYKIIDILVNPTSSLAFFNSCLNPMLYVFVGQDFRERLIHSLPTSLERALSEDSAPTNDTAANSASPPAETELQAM

[8] = target: T4, C-X-C chemokine receptor type 2 (Homo sapiens) (UniProt P25025); assay: Antagonist activity at CXCR2 in human neutrophils assessed as inhibition of GROalpha-stimulated intracellular calcium mobilization at 50 uM by FLIPR assay; type: functional, cell-based
T4 sequence (whole entry): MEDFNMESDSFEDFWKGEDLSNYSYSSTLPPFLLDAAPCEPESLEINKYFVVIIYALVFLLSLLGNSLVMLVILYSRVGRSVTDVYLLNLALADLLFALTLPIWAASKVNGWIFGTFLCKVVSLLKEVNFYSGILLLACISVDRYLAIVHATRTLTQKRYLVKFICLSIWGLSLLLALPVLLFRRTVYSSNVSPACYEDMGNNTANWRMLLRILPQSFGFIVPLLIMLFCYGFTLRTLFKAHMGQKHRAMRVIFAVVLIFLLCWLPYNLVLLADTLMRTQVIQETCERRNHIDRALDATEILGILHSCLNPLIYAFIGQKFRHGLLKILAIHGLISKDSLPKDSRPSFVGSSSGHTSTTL

[9] = target: T5, C5a anaphylatoxin chemotactic receptor 1 (Homo sapiens) (UniProt P21730); assay: Antagonist activity at C5aR in human neutrophils assessed as inhibition of C5a-stimulated intracellular calcium mobilization at 50 uM by FLIPR assay; type: functional, cell-based
T5 sequence (whole entry): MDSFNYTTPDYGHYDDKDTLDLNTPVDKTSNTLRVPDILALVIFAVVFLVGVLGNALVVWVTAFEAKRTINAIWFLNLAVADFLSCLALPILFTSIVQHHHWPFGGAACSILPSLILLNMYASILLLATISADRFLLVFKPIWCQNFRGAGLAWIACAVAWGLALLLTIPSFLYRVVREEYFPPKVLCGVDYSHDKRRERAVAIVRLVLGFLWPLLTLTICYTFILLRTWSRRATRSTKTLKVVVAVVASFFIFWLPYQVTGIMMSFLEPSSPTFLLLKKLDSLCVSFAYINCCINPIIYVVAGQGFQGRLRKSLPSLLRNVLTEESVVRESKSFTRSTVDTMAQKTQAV

fMet-Leu-Phe receptor [10] = target: T1, fMet-Leu-Phe receptor; assay: Antagonist activity at human FPR1 in expressed in HEK293 cells assessed as inhibition of fMLF-stimulated intracellular calcium mobilisation after 5 mins by FLIPR assay; type: functional, cell-based
fMet-Leu-Phe receptor [11] = target: T6, fMet-Leu-Phe receptor (Mus musculus, UniProt P33766); assay: Antagonist activity at mouse FPR1 expressed in HEK293 cells assessed as inhibition of fMLFF-stimulated intracellular calcium mobilisation by FLIPR assay; type: functional, cell-based
T6 sequence (P33766 whole entry): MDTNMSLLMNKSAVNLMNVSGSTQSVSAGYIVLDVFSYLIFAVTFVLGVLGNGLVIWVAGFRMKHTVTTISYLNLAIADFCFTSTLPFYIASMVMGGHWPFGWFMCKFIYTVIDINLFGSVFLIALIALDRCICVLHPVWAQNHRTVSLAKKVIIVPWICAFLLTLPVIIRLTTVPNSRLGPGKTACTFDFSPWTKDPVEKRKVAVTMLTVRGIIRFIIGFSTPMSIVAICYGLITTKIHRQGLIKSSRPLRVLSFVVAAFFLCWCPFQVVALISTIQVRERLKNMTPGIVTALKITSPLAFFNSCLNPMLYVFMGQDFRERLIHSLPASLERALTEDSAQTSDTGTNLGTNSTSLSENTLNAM

[12] = Antagonist activity at rat FPR1 expressed in HEK293 cells assessed as inhibition of fMLF-stimulated intracellular calcium mobilisation by FLIPR assay; type: functional, cell-based
[13] = target: T2, fMet-Leu-Phe receptor (Homo sapiens); assay: Agonist activity at FPR1 in human neutrophils assessed as increase in calcium mobilization at 50 uM by FLIPR assay; type: functional
fMet-Leu-Phe receptor [14] = target: T1, fMet-Leu-Phe receptor; assay: Antagonist activity at FPR1 in human neutrophils assessed as inhibition of fMLF-stimulated degranulation after 15 mins by fluorescence assay; type: functional
Hepatocyte = assay: Intrinsic clearance in Sprague-Dawley rat hepatocytes; type: ADME, cell-based, Liver
[15] = target: T2, fMet-Leu-Phe receptor (Homo sapiens); assay: Antagonist activity at FPR1 in human neutrophils assessed as inhibition of PMA-stimulated neutrophil degranulation after 15 mins by fluorescence assay; type: functional
[16] = target: T2, fMet-Leu-Phe receptor (Homo sapiens); assay: Reversible inhibition of FPR1 in human neutrophils assessed as inhibition of fMLF-stimulated calcium mobilisation by FLIPR assay; type: functional
THP-1 = assay: Cytotoxicity against human THP1 cells assessed as cell viability after 24 hrs by Alamar blue assay; type: cell-based; settings: THP-1, 24 h
[17] = Solubility of the compound in 0.1 M phosphate buffer; type: physicochemical
[18] = Chemical stability of the compound assessed as half life; type: physicochemical

pIC50 (fMet-Leu-Phe receptor [1]): 5.30
SMILES: O=C(NC(C(=O)Nc1ccccc1)c1ccc(Cl)cc1)c1ccccc1O (stereo not given)

microsomal CLint [2]: 14 µL/min/mg
inhibition [3]: < 25%
SMILES: CCOc1ccc2oc(C(=O)NC(c3ccccc3)c3nc4ccccc4[nH]3)c(C)c2c1 (stereo not given)

inhibition [4]: < 25%
pIC50 (fMet-Leu-Phe receptor [1]): 6.50
SMILES: CSCCC(NC(=O)c1ccccc1)c1nc2ccccc2n1Cc1ccc(C#N)cc1 (stereo not given)

pIC50 (fMet-Leu-Phe receptor [1]): 5.00
SMILES: Cc1cccc(C)c1NC(=O)C(c1ccccc1)N(C)C(=O)c1ccccc1O (stereo not given)

pIC50 (fMet-Leu-Phe receptor [1]): 5.90
SMILES: Cc1cccc(C)c1NC(=O)C(NC(=O)c1ccccc1O)c1ccccc1 (stereo not given)

pIC50 (fMet-Leu-Phe receptor [1]): 5.40
SMILES: CSCCC(NC(=O)c1oc2ccccc2c1C)c1nc2ccccc2[nH]1 (stereo not given)

pIC50 (fMet-Leu-Phe receptor [1]): < 4.60
SMILES: CCOc1ccc2oc(C(=O)N[C@@H](CSC)c3nc4ccccc4[nH]3)c(C)c2c1

inhibition [4]: < 25%
SMILES: CCOc1ccc2oc(C(=O)NC(CCSC)c3nc4ncccc4[nH]3)c(C)c2c1 (stereo not given)

inhibition [4]: < 25%
pIC50 (fMet-Leu-Phe receptor [1]): 5.20
SMILES: CSCCC(NC(=O)c1sccc1Cl)c1ncc(-c2ccccc2)[nH]1 (stereo not given)

inhibition [4]: < 25%
pIC50 (fMet-Leu-Phe receptor [1]): 5.60
SMILES: CSCCC(NC(=O)c1ccccc1)c1nc2ccccc2n1Cc1ccccc1 (stereo not given)

pIC50 (fMet-Leu-Phe receptor [1]): 5.70
SMILES: CSCCC(NC(=O)c1sccc1Cl)c1nc2ccccc2[nH]1 (stereo not given)

pIC50 (fMet-Leu-Phe receptor [1]): 5.60
SMILES: Cc1cccc(C)c1NC(=O)C(NC(=O)c1nc2ccccc2[nH]c1=O)c1ccc(Cl)cc1 (stereo not given)

pIC50 (fMet-Leu-Phe receptor [5]): 7.00
microsomal CLint [2]: 43 µL/min/mg
pIC50 (fMet-Leu-Phe receptor [6]): 6.40
pIC50 (fMet-Leu-Phe receptor [1]): 6.50
inhibition [7]: < 25%
inhibition [8]: < 25%
pIC50 (fMet-Leu-Phe receptor [10]): 5.80
pIC50 (fMet-Leu-Phe receptor [11]): 4.60
pIC50 [12]: 5.90
inhibition [13]: < 25%
pIC50 (fMet-Leu-Phe receptor [14]): 6.40
CL (Hepatocyte): 70 µL/min
inhibition [15]: < 25%
inhibition [16]: Active
solubility [17]: 68 µM (≈ 26.8 µg/mL)
half-life [18]: > 10.8 days
SMILES: Cc1ccc(C(NC(=O)c2ccccc2O)C(=O)Nc2c(C)cccc2C)s1 (stereo not given)
inhibition [9]: < 25%
pIC50 (THP-1): 4.10

inhibition [3]: < 25%
SMILES: Cc1ccccc1C(=O)NC(C(=O)Nc1c(C)cccc1C)c1ccc(Cl)cc1 (stereo not given)

pIC50 (fMet-Leu-Phe receptor [1]): 5.00
SMILES: CSCCC(NC(=O)c1ocnc1C)c1nc2ccccc2[nH]1 (stereo not given)

pIC50 (fMet-Leu-Phe receptor [1]): 5.00
SMILES: CSCCC(NC(=O)c1cnccn1)c1nc2ccccc2[nH]1 (stereo not given)

pIC50 (fMet-Leu-Phe receptor [1]): 5.60
SMILES: CSCCC(NC(=O)C1CCCCC1)c1nc2ccccc2[nH]1 (stereo not given)

inhibition [3]: < 25%
SMILES: COc1ccccc1C(=O)NC(C(=O)Nc1c(C)cccc1C)c1ccc(Cl)cc1 (stereo not given)

inhibition [3]: < 25%
SMILES: COc1ccccc1C(=O)NC(CCSC)c1nc2ccccc2[nH]1 (stereo not given)
